# Data taken from US20180207294A1, “NON-ALCOHOLIC FATTY LIVER REGULATING FACTOR 14-3-3 PROTEIN” (Korea University Research and Business Foundation, priority 2015, published 2018).
# Legend:
# [1] = system: SREBP-1c protein; experiment: SREBP-1c protein expression by western blotting, HepG2 cells; assay type: cell-based; conditions: 14-3-3 overexpression, 200 μM oleic acid 72 hours, FIG. 7D
# Description: In addition, HepG2 cells were seeded in a 6-well plate at a density of 5×10^5 cells per each well, and then transfected with HA-14-3-3β DNA (1 μg) or HA-14-3-3γ DNA (1 μg) using an E-fection plus reagent (Lugen). A ratio of DNA to the E-fection plus reagent was 1:2, and this method was performed according to a manufacturer's manual. After transfection, the cells were treated with 200 μM of oleic acid (OA) for 72 hours, washed with ice-cold PBS, and lysed with 80 μl/well of a lysis buffer (150 mM NaCl, 1 mM EDTA, 1% Nonidet P-40, 5% glycerol, 25 mM tris-HCl, pH 7.5, protease inhibitor added), the lysed cells were centrifuged at 10,000×g and 4° C. for 10 minutes to extract proteins, and 30 μg of the proteins was separated on a 10% SDS-PAGE gel and identified using each of the antibodies (HA, SREBP-1c: Santa Cruz) by western blotting, and all antibodies were used in a ratio of 1:3000. To verify whether such regulation of mRNA expression of the target genes of PPARγ2 is the same as in the expression of a protein thereof, an expression amount of the SREBP-1c protein was checked by western blotting. As a result of the experiment, it was confirmed that the expression of the SREBP-1c protein was increased by the overexpression of 14-3-3β and reduced by the overexpression of 14-3-3γ (see FIG. 7D).
# [2] = system: primary mouse hepatocytes; experiment: Oil Red-O lipid accumulation, primary mouse hepatocytes; assay type: cell-based; conditions: 14-3-3 overexpression, 200 μM oleic acid 72 hours, FIG. 9B
# Description: HepG2 cells and primary mouse hepatocytes were separately seeded in a 6-well plate at a density of 4×10^5 cells per each well, and then transfected with GFP-14-3-3β DNA (1 μg) or GFP-14-3-3γ DNA (1 μg) and si-14-3-3β (10 μM, Santa Cruz) or si-14-3-3γ (10 μM, Santa Cruz) using an E-fection plus reagent (Lugen). A ratio of DNA to the E-fection plus reagent was 1:2, and this method was performed according to a manufacturer's manual. […] The stained cells were bleached with 1 ml of isopropanol and analyzed at a wavelength of 550 nm using a DU530 spectrophotometer (Beckman Instruments, Palo Alto, Calif.).
# [3] = molecular target: T1, PPARγ2 S273A mutant (Homo sapiens, UniProt P37231, S273A); experiment: GST-pull down assay with PPARγ2 S112A and S273A mutants (HEK-293T); assay type: binding; conditions: FIG. 4A, 4B
# T1 construct: expressed in transfected cells; host or cells: HEK-293T
# T1 sequence (P37231 1-505 S273A): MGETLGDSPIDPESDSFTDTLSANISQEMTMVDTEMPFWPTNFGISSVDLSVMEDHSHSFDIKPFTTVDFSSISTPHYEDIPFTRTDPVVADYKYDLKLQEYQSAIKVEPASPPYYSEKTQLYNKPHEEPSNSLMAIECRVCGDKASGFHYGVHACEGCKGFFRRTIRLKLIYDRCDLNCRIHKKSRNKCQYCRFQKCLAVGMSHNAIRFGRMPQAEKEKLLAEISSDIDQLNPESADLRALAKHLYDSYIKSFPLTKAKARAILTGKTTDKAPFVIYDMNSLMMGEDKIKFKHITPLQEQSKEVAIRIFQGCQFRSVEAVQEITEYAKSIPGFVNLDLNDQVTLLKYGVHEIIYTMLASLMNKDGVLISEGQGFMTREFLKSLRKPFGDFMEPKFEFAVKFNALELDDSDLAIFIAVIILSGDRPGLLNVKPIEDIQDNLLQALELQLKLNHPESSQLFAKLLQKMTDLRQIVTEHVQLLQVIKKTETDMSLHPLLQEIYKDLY
# Description: 14-3-3 proteins are known to bind to phosphorylated residues of a target protein. Phosphorylated residues associated with the activity of PPARγ2 are known to be serine 112 and serine 273. Thus, PPARγ2 mutants (PPARγ2 S112A and S273A) with non-phosphorylated serine 112 and serine 273 residues were produced and binding thereof with 14-3-3 proteins was verified through GST-pull down assay.
# HEK-293T cells were seeded in a 100 mm plate at a density of 2×10^6 cells per each well, and then transfected with Flag-PPARγ2 (WT) DNA (4 μg), Flag-PPARγ2 (S112A) DNA (4 μg), Flag-PPARγ2(S273A) DNA (4 μg), and mGST-14-3-3β (4 μg) or mGST-14-3-3γ (4 μg) using an E-fection plus reagent (Lugen). As for Flag-PPARγ2 (S112A) DNA and Flag-PPARγ2 (S273A) DNA, DNA fragments amplified through polymerase chain reaction (PCR) were cloned into a Flag-tagged vector. A ratio of DNA to the E-fection plus reagent was 1:2, and this method was performed according to a manufacturer's manual. The corresponding cells were washed with ice-cold PBS and lysed using 500 μl/well of a lysis buffer (150 mM NaCl, 1 mM EDTA, 1% Nonidet P-40, 5% glycerol, 25 mM tris-HCl, pH 7.5, protease inhibitor added), and the lysed cells were centrifuged at 10,000×g and 4° C. for 10 minutes to extract proteins. […]
Substance,expression of the SREBP-1c protein [1],lipid accumulation by oleic acid (Oil Red-O) [2],binding with PPARγ2 S273A mutant [3]
"14-3-3β: 14-3-3 isoform protein, overexpressed by DNA transfection; regulating factor that increases transcriptional activity of PPARγ2",increased,increased lipid accumulation,suppressed
"14-3-3γ: 14-3-3 isoform protein, overexpressed by DNA transfection; regulating factor that decreases transcriptional activity of PPARγ2",reduced,reduced lipid accumulation,suppressed
